Test results: paper PMC6270821, “ROS-Mediated Cytotoxic Effect of Copper(II) Hydrazone Complexes against Human Glioma Cells” (Molecules, 2014)

Tests used:
pUC 19 plasmid DNA = experiment: Agarose gel electrophoresis of supercoiled plasmid DNA; design: species or system Escherichia coli; conditions: 100 µM, Tris-HCl pH 7.20, 37 °C, 24 h
Experimental: Studies of interactions between the compounds under study and supercoiled plasmid DNA by agarose gel electrophoresis were carried out. Thus, 136 ng of purified plasmid DNA-pUC 19 from Escherichia coli (Sigma-Aldrich Brasil, São Paulo, Brazil) were incubated with compounds 1, 2 and cisplatin at 100 µM in Tris-HCl buffer (NaCl 50 mM, Tris-HCl 5 mM, pH = 7.20). The mixture was incubated at 37 °C for 24 h. Thereafter, the reactions were quenched by adding 5 µL of the loading buffer solution (50 mM Tris, pH 7.20, 0.01% bromophenol blue, 50% glycerol, and 250 mM EDTA). The samples were analyzed by 1% agarose gel electrophoresis in 0.5 × TBE buffer for 1 h 40 min at […]. The gel was stained after electrophoresis in 0.5× TBE buffer with 2.5 µg·mL^−1 ethidium bromide for 15 min and visualized by UV light.

[1] = molecular target: T1, bovine serum albumin (BSA) (Bos taurus, UniProt P02769); experiment: Fluorescence quenching of BSA; format: binding; conditions: for quenching of BSA fluorescence emission intensity: 1.0 µM BSA, up to 10.0 µM compound, excitation 280 nm, pH 7.20, 25 °C; for number of binding sites n (BSA): Scatchard equation; for binding constant K (BSA, Scatchard): phosphate buffer pH 7.20, 25 °C; for Stern-Volmer quenching constant Ksv (BSA): λ = 345 nm, 25 °C
T1 construct: purchased Sigma-Aldrich Brasil
T1 sequence (P02769 25-607): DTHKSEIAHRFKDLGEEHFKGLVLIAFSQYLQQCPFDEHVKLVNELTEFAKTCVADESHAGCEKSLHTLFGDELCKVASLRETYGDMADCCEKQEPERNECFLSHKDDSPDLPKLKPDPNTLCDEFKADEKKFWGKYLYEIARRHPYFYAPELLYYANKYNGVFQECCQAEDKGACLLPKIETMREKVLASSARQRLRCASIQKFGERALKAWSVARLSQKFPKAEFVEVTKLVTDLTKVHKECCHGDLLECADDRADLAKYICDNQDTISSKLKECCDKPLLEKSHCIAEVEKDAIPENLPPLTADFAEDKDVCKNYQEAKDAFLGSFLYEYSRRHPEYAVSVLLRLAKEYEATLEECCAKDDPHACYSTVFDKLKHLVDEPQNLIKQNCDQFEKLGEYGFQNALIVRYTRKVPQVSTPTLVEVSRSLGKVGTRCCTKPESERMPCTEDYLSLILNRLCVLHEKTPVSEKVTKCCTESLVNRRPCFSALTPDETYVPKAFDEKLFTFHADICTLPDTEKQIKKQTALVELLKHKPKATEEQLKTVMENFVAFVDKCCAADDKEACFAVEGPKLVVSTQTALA
Experimental: Based on fluorescence data for λ = 345 nm at 25 °C, the Stern-Volmer quenching constant (Ksv) and the bimolecular quenching rate constant (kq) were obtained using the classical Stern-Volmer equation (Equation (3)). The value of kq was calculated by the Ksv/τ0 ratio, where τ0 is the average lifetime of the fluorophore in the absence of quencher (τ0 =10 ns for BSA).
The interaction of complexes 1 and 2 with bovine serum albumin (BSA) was studied in phosphate buffer (8.3 mM, pH = 7.20). Stock solution of BSA (0.5 mM) was prepared in phosphate buffer and stored in the dark in the refrigerator for further use. The stock solutions of complexes were freshly prepared by first dissolving the compounds in DMF and then making the dilutions with phosphate buffer (pH = 7.20). The amount of DMF was kept less than 5% (by volume) for each set of experiment and had no effect on any experimental results.
(§1) The binding of the copper(II) complexes to BSA was studied using fluorescence spectra. The emission spectra were recorded in the 295–600 nm range with excitation at 280 nm. The excitation and emission slit widths and scan rates were constantly maintained for all the experiments. BSA solution (1.0 µM) was titrated by successive additions of a stock solution of the complexes (50 mM) using a micropipette. All experiments were performed at 298 K. The synchronous fluorescence spectra of BSA varying the concentration of 1 and 2 were recorded at ∆λ (difference between excitation and emission wavelength) = 15 nm and ∆λ = 60 nm.
If it is assumed that the binding of compounds with BSA occurs at equilibrium, the equilibrium binding constant can be analyzed according to the Scatchard equation [28].

[2] = molecular target: T1, bovine serum albumin (BSA); experiment: Synchronous fluorescence spectra of BSA; format: binding; conditions: 1.0 µM BSA, up to 10.0 µM compound; for decrease of BSA synchronous fluorescence intensity at Δλ = 60 nm: tryptophan residues; for decrease of BSA synchronous fluorescence intensity at Δλ = 15 nm: tyrosine residues
Experimental: Synchronous fluorescence spectroscopy is a very useful method to study the changes in the microenvironment of tyrosine and tryptophan amino acid residues in BSA [39]. The spectra were measured after and before the addition of test compounds. The synchronous fluorescence of BSA is characteristic of tyrosine residues when the difference between excitation and emission wavelength Δλ value is 15 nm and characteristic of tryptophan residues if Δλ value is 60 nm. […] In both cases, a decrease in emission intensity of BSA with increasing complex concentration was observed. […] In the spectra at Δλ = 60 nm, an important decrease of the BSA fluorescence intensity (~41% for 1 and ~44% for 2) accompanied by a small blue shift of 1nm occurs.
as §1

U87 cells = experiment: ROS generation, DCFH-DA assay, U87 cells; format: cell-based, human; conditions: 1 × 10^−5 mol/L, 24 h
From the text: To examine the effects of H2AcMe, H2BzMe and their complexes 1 and 2 on the generation of free radicals (reactive oxygen species, ROS), we used the 2',7'-dichlorodihydrofluorescein diacetate (DCFH-DA) assay.
ROS accumulation was detected using dichlorodihydrofluorescein diacetate (DCFH-DA, Sigma). DCFH-DA is a non-fluorescent compound, that when it is taken up by passive diffusion into the cells, is hydrolyzed by esterases to yield non-permeable DCFH. In the presence of ROS, DCFH is oxidized to the fluorescent DCF. Tumor cells were treated with the compounds for 24 h and were then incubated with DCFH-DA (1 × 10^−5 mol·L^−1) for 30 min at 37 °C. Following incubation, the cells were washed twice with PBS. Thereafter, the cells were observed under the fluorescent microscope Zeiss Axionplan coupled with a digital camera at excitation and emission wavelengths of 488 and 525 nm, respectively. Data were analyzed using ImageJ (ImageJ, National Institute of Health, Bethesda, MD, USA) and expressed as percentages of DCFDA fluorescence of the corresponding control.

CC(=O)NN=C(c1ccccc1)c1ccccn1.[Cl][Cu][Cl] [compound 2, [dichloro(2-benzoylpyridineacetylhydrazone)copper(II)]]
alteration in the electrophoretic mobility of pUC 19 plasmid DNA (pUC 19 plasmid DNA): no alteration in the electrophoretic mobility
quenching of BSA fluorescence emission intensity [1]: ~ 40%
number of binding sites n (BSA) [1]: 1.06 ± 0.01
binding constant K (BSA, Scatchard) [1]: (1.37 ± 0.05) × 10^5 M^−1
Stern-Volmer quenching constant Ksv (BSA) [1]: (0.68 ± 0.01) × 10^5 M^−1
decrease of BSA synchronous fluorescence intensity at Δλ = 60 nm [2]: ~ 44%
decrease of BSA synchronous fluorescence intensity at Δλ = 15 nm [2]: ~ 18%
ROS levels in U87 cells compared with T98 cells (U87 cells): equally effective in both cell lineages

CC(=O)NN=C(C)c1ccccn1.[Cl][Cu][Cl] [compound 1, [dichloro(2-acetylpyridineacetyl-hydrazone)copper(II)]]
alteration in the electrophoretic mobility of pUC 19 plasmid DNA (pUC 19 plasmid DNA): no alteration in the electrophoretic mobility
quenching of BSA fluorescence emission intensity [1]: ~ 35%
number of binding sites n (BSA) [1]: 1.06 ± 0.01
binding constant K (BSA, Scatchard) [1]: (1.11 ± 0.04) × 10^5 M^−1
Stern-Volmer quenching constant Ksv (BSA) [1]: (0.55 ± 0.01) × 10^5 M^−1
decrease of BSA synchronous fluorescence intensity at Δλ = 60 nm [2]: ~ 41%
decrease of BSA synchronous fluorescence intensity at Δλ = 15 nm [2]: ~ 16%
ROS levels in U87 cells compared with T98 cells (U87 cells): higher levels of ROS in U87 cells
